Source: patent US11970475B1, “4-(1-(2-Hydroxypropyl)-4,5-diphenyl-1H-imidazol-2-yl)pyridin-3-ol as an antimicrobial compound” (KING FAISAL UNIVERSITY, priority 2023, dated 2024)

Experiments:
St. Aereus = assay: Anti-microbial screening, agar dilution, St. Aereus; format: cell-based, Staphylococcus aureus; conditions: after 10, 20, 40 and 60 minutes at all dilutions 1:100, 1:200, 1:400, 1:800
Protocol: (§1) The antibacterial properties of the present compound were studied by the method of agar dilution. Test solutions of the compound were prepared in a concentration of 1% using dimethylformamide as a solvent then they are diluted in physiological solution to obtain the final experimental dilutions 1:100, 1:200, 1:400, and 1:800. The effect of these substances were compared with furacillin in a controllable study. The testing microbes used were gram positive bacteria St. Aereus, gram negative bacteria E. Coli, Ps. aeruginosa and Candida albicans fungi were taken. The experiments used for this survey were meat-pentonlu agar (EPA) for cultivation of bacteria and Saburo environment for fungi. Each experiment used 1 ml of test solution on each plate 500 min. Add 2 drops of emulsified with microbes feel. All experimental samples were taken from the agar after 10, 20, 40, and 60 minutes in the environment on the basis of Patrk planted. Bacteria were cultivated at a temperature of 37° C. for 1 day and the mushroom was kept in a thermostat for […] at a temperature of 28° C. Then results were checked.

E. Coli = assay: Anti-microbial screening, agar dilution, E. Coli; format: cell-based, Escherichia coli; conditions: after 10, 20, 40 and 60 minutes at all dilutions 1:100, 1:200, 1:400, 1:800
Protocol: as §1

Candida albicans = assay: Anti-microbial screening, agar dilution, Candida albicans; format: cell-based; conditions: after 10, 20, 40 and 60 minutes at all dilutions 1:100, 1:200, 1:400, 1:800
Protocol: as §1

Ps. aeruginosa = assay: Anti-microbial screening, agar dilution, Ps. aeruginosa; format: cell-based, Pseudomonas aeruginosa; conditions: after 10, 20, 40 and 60 minutes at all dilutions 1:100, 1:200, 1:400, 1:800
Protocol: as §1

CC(O)Cn1c(-c2ccncc2O)nc(-c2ccccc2)c1-c1ccccc1 (centres unmarked) [4-(1-(2-Hydroxypropyl)-4,5-diphenyl-1H-imidazol-2-yl)pyridin-3-ol]
inhibition activity (in words) (St. Aereus): highest inhibition activity | melting point: 117 to 118 °C | inhibition activity (in words) (E. Coli): highest inhibition activity | inhibition activity (in words) (Candida albicans): highest inhibition activity | inhibition activity (in words) (Ps. aeruginosa): highest inhibition activity
